Entries after “also recorded” stand apart in the source; their conditions may differ.
Legend:
[1] = molecular target: hemoglobin in human red blood cells (Homo sapiens, UniProt P68871+P69905); assay: Calculated oxygen delivery index of human red blood cell suspensions (ΔY); assay type: cell-based; details: human RBC, effector 0.5 mM
Description: (§1) L3,5 and L3,4,5 were provided by Dr. Lalezari (Montefiore Hospital, New York); RSR-4 [2-[4-[[(3,5-dichloroanilino)carbonyl]methyl]phenoxy]-2-methylpropionic acid]and RSR13 [2-4-[[(3,5- dimethylanilino)carbonyl]methyl]phenoxy]-2-methylpropionic acid] have been synthesized following the procedure described in Randad et al. (J. Med. Chem. 34,752 (1991)). Human serum albumin (HSA), bovine serum albumin (BSA) and 4,4'diisothiocyanatostilbene-2,2'-disulfonate (DIDS) were purchased from Sigma (St. Louis, Mo.). Due to their low solubility in aqueous buffer, 10 mM stock solutions of the compounds were prepared in a slight exccess of sodium bicarbonate and back-titrated to pH 7.4. For example, RSR-4 or RSR-13 was dissolved at 60° C. in a 140 mM NaCl and 50 mM bis-Tris buffer at room temperature upon progressive addition of NaHCO3 to obtain 10 mM stock solutions. The pH was carefully adjusted to 7.4 after complete solubilization and before use of the solutions. Fresh solutions were prepared each week. Stock solutions of DIDS (1 mM) were prepared, in the dark, on the day of the experiments in a pH 7.4 buffer. Human serum albumin (defatted HSA) and bovine serum albumin (BSA) were prepared freshly as 1 mM stock solutions, pH 7.4. Equilibrium Measurements. The allosteric modulation of the effectors on freshly prepared solutions of hemoglobin or red cell suspensions was measured by the change in p50, the partial pressure of oxygen for half-saturation. Oxygen equilibrium curves (OEC) were carried out with the Hemox analyzer (TCS, Southampton, Pa.) under the following conditions: pH 7.4, 140 mM NaCl and 50 mM bis-Tris buffer at 37° C. In all experiments, the concentration of hemoglobin in the red cell suspensions was 20-25 μM hemoglobin tetramer (Hb4) as measured by Drabkin's method (cyanomethemoglobin) at the end of each recording. The final concentration of the allosteric effector in the cuvette was 0.5 mM, resulting in an effector/Hb4 ratio of 20 in the absence of albumin. OEC were also made in the same buffer containing 12.5, 25, 50, and 100 μM HSA (for human red cell suspensions) or BSA (for bovine cell suspensions). The serum albumin experiments were carried out with traces of an antifoaming agent. This agent has no deleterious effect on the red cell suspensions. The molar ratio of albumin to tetrameric hemoglobin was varied from 0.5 (at 12.5 μM HSA) to 4 (at 100 μM HSA); in whole blood this ratio is approximately 0.3 (0.7 mM albumin plus plasma proteins/2.25 mM Hb4). Therefore, the concentration of albumin used in the present studies was always larger relative to tetrameric hemoglobin than that found in whole blood.
In FIG. 2, curve (1) is the control, curve (2) is the suspension plus 0.5 mM RSR-4, curve (3) is the suspension plus 0.5 mM RSR-4 plus 50 μM HSA, and curve […] is the suspension plus 0.5 mM RSR-4 plus 100 μM HSA. The concentration ratios of albumin/Hb are above those found in vivo. For example, in curve (3) serum albumin is about six times and in curve (4) about twelve times in excess above the concentration ratio of albumin/Hb found in vivo. The vertical lines indicate the physiological pO2 values in the arterial blood (90 mmHg) and in the mixed venous blood (40 mmHg). The change in oxygen saturation between these two lines allows an estimation of the capability of the red blood cells to deliver oxygen to tissues (ΔY (%), as discussed below in conjunction with Table 4).
In Vivo Estimates for Percent of Oxygen Delivery. Table 4 presents the calculated oxygen delivery index for red blood cell suspensions in the presence or absence of 0.5 mM L3,5 or RSR-4. The experimental conditions for the experiments of Table 4 were the same as those used for Table 1. The oxygen delivery index was calculated from the experimental oxygen binding curves as the difference in hemoglobin oxygen saturation (percent) corresponding to the pO2 in the arterial blood (90 mmHg) and that in the mixed venous blood (40 mMHg). […]

[2] = molecular target: HbA (normal adult hemoglobin) (Homo sapiens, UniProt P68871+P69905); assay: Oxygen equilibrium of isolated human Hb solutions (HbA p50); assay type: biochemical; details: human Hb solution; for p50 shift at increasing chloride concentration: 0.5 mM, chloride 0-400 mM; for HbA(p50): effector 0.5 mM, pH 7.2, 100 mM NaCl, 25 °C
Sequence of HbA (normal adult hemoglobin) (P69905 whole entry): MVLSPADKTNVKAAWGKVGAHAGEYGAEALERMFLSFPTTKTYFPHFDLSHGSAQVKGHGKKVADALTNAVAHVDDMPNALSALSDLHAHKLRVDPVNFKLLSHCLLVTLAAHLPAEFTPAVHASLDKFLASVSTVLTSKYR
Sequence of HbA (normal adult hemoglobin) (P68871 whole entry): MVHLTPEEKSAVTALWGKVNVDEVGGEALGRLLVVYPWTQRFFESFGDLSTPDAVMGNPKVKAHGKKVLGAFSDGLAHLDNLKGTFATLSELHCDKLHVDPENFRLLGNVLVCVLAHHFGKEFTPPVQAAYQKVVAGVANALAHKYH
Description: as §1
Bovine Red Cell Studies. […]

purified Hb Yakima = assay: Effect on purified Hb Yakima; assay type: biochemical, human
stored human RBCs = stored human RBCs (Homo sapiens, UniProt P68871+P69905); assay: Outdated blood studies: oxygen dissociation curves of stored red blood cells; assay type: cell-based; details: for p50 / ΔY [Y(90%)-Y(40%)]: 40-day-old stored human RBCs
Sequence of stored human RBCs (P69905 whole entry): as the sequence (P69905 whole entry) above
Sequence of stored human RBCs (P68871 whole entry): as the sequence (P68871 whole entry) above
Experimental: Outdated Blood Studies. For the outdated blood studies, 40-day-old packed red cells (80% hematocrit) were obtained from the blood bank at the Medical College of Virginia, Richmond, Va. The cells had been stored in Adsol formulation at 1°-4° C., pH 6.84. Fresh red cells obtained from volunteers were used for the control studies in Table III. The fresh red blood cells were centrifuged and washed with saline, pH 6.8. The oxygen dissociation curves were recorded on an Aminco Hem-O-Scan (Travenol Laboratories).
Outdated Blood Studies. The capability of RSR-13 to restore the oxygen affinity of stored blood was investigated. The procedure involved measurement of the oxygen equilibrium curves on red cell suspensions, which were stored in Adsol formulations at 4° C., in either the absence (controls) or presence of RSR-13. Table 3 presents the p50 (mmHg) and ΔY (%) [Y(90%)-Y(40%)] for outdated red blood cell suspensions (forty days) in the presence or absence of RSR-13.

human red cells = assay: Hemolysis of human red cells in vitro; assay type: cell-based

Sequence of hemoglobin in human red blood cells (P69905 whole entry): as the sequence (P69905 whole entry) above
Sequence of hemoglobin in human red blood cells (P68871 whole entry): as the sequence (P68871 whole entry) above

| SMILES | ΔY (oxygen delivery index) ([1]; 50 μM HSA) [%] | ΔY (oxygen delivery index) ([1]; 100 μM HSA) [%] | ΔY (oxygen delivery index) ([1]; no HSA) [%] | p50 shift at increasing chloride concentration [2] | HbA(p50) [2] [mmHg] | state of purified Hb Yakima in the presence of effector (purified Hb Yakima) | pH of RBC solution versus untreated samples (stored human RBCs; 4 mM) | restoration / preservation of oxygen transport capabilities (stored human RBCs; 40-day-old RBC, 1 mM, or added prior to measurements or during storage) | p50 (stored human RBCs; 1 mM) [mm Hg] | ΔY [Y(90%)-Y(40%)] (stored human RBCs; 1 mM) [%] | p50 (stored human RBCs; 2 mM) [mm Hg] | ΔY [Y(90%)-Y(40%)] (stored human RBCs; 2 mM) [%] | hemolysis (stored human RBCs; stored human red cells, end of experiments) | hemolysis (human red cells) |
| --- | --- | --- | --- | --- | --- | --- | --- | --- | --- | --- | --- | --- | --- | --- |
| CC(C)(Oc1ccc(NC(=O)Nc2cc(Cl)cc(Cl)c2)cc1)C(=O)O [L3,5, reference compound] | 30 | 25 | 42 | identical at all chloride concentrations | 47 | remains locked in the high-affinity R-state | – | – | – | – | – | – | – | – |
| Cc1cc(C)cc(NC(=O)Cc2ccc(OC(C)(C)C(=O)O)cc2)c1 [RSR-13] | – | – | – | – | – | – | higher than that of untreated samples | able to restore, to near normal the oxygen transport capabilities (p50 and ΔY) of 40-day-old red blood cells; also recorded: preserved the oxygen delivery capabilities of red cell hemoglobin | 39 | 37 | 45 | 40 | no indication of hemolysis | – |
| CC(C)(Oc1ccc(CC(=O)Nc2cc(Cl)cc(Cl)c2)cc1)C(=O)O [RSR-4, 2-[4-[[(3,5-dichloroanilino)carbonyl]methyl]phenoxy]-2-methylpropionic acid] | 39 | 34 | 41.5 | identical at all chloride concentrations | 35.5 | remains locked in the high-affinity R-state | – | – | – | – | – | – | – | No hemolysis |

From patent publication US5661182A, “Method for lowering oxygen affinity of hemoglobin in redcell suspensions, in whole blood and in vivo” (Virginia Commonwealth University, priority 1995, dated 1997)
